The values below come from publication PMC5701137, “Discovery of novel choline acetyltransferase inhibitors using structure-based virtual screening” (Scientific Reports, 2017).

Where “and” joins values, the source holds several entries; their conditions need not be identical. Identical values can stand only once.

The target of one experiment is T1, plasma BuChE (Homo sapiens, UniProt P06276).
T1 construct: 1:450 diluted solution of a pooled human plasma; from tissue; host or cells: pooled human plasma
T1 sequence (P06276 29-602): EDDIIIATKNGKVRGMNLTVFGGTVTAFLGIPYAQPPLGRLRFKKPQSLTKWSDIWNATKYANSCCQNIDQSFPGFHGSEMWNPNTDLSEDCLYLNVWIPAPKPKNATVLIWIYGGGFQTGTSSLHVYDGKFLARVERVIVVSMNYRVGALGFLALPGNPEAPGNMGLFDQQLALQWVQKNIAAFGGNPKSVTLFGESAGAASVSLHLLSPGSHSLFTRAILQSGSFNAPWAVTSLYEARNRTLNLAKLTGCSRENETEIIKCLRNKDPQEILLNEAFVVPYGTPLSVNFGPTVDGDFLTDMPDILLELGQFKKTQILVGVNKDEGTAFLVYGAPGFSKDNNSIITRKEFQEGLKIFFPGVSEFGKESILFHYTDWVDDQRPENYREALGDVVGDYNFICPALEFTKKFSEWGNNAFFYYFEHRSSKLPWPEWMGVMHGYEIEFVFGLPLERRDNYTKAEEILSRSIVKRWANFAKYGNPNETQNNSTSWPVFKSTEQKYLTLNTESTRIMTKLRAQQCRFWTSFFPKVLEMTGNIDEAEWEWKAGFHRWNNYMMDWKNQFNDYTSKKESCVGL
The experiment can be described thus: Modified Ellman's colorimetric assay for BuChE (pooled human plasma) and kinetic studies. In kind it is biochemical. The settings on record: 200 µM compound, compared to control, mean of three experiments in triplicate. From the text: (§1) A modified version of Ellman’s colorimetric assay[16],[17] was adapted to a high throughput assay for the enzymatic activity of BuChE and AChE. The reagent, butyrylthiocholine iodide (BTC), acetylthiocholine iodide (ATC), 5,5′-dithiobis (2-nitrobenzoic acid) (DTNB) were purchased from Sigma-Aldrich (St. Louis, MO, USA). The modified assay details are as previously described[34],[35]. The main modification concerned with the high throughput adaptation of the assay for use in 384-well plates. Briefly, 25 μL/well of a 1:450 diluted solution of a pooled human plasma and 1:768 diluted (3.5 ng/ml final concentration) purified recombinant human AChE protein (Sigma, Cat no. C1682) was used for measurement of BuChE and AChE activity, respectively. In the initial in vitro screening step, the wells were pre-incubated with 25 μL/wells of different Asinex compounds for 10–30 minutes at room temperature. The concentration of the compounds working solution was 3X to give a final concentration of 200 μM in a final volume of 75 μL in each well. The stock concentration of the compounds were prepared in 100% DMSO. The stock concentration was chosen usually at 10 mM, allowing the final DMSO concentration in the wells to be less than 4%. Finally, 25 μL of a cocktail mix prepared in Na/K phosphate buffer, containing DTNB (final concentration 0.4 mM) and BTC, (final concentration 1 mM) or ATC (final concentration 0.5 mM) was added to each well and the changes in absorbance was monitored at 412 nm wavelength for 15–20 minutes with one-minute interval, using a microplate spectrophotometer reader (Infinite M1000, Tecan). The rate of the enzyme activity was determined from the linear part of the kinetic reaction curves as ∆OD/time.
(§2) For kinetic studies, a similar protocol as inhibition assay was followed; a dilution series of five different concentrations ranging from 10^−6 to 10^−9 M were prepared for each selected Asinex compounds. For ChAT, the A-CoA was kept constant at 10 μM (final) but the concentration of choline chloride varied between 320–10 μM. For BuChE, BTC was used as the substrate in the concentrations ranging from 0.0625 to 2 mM. For AChE, ATC was used as the substrate in the concentrations ranging from 0.0312 to 1 mM. Each compound concentration was measured in duplicates. The rate of enzyme activity (as ∆OD/hr kinetic data) was calculated and processed using the GraphPad Prism 7 analysis software. The inhibitory constant (Ki) values were determined from the dose-response curve and the half-maximal inhibitory concentration (IC50) values were calculated by plotting the percentage enzyme activity vs. the log of the Asinex compound concentrations and fitting the data using the nonlinear regression Enzyme Kinetics-Inhibition function.
(In general: DTNB colorimetry detects thiols as they appear.)

Experiment [1] concerns the target T2, human rChAT (Homo sapiens, UniProt P28329).
T2 construct: made in house; host or cells: E. coli BL21 Rosetta2
T2 sequence (P28329 1-630 isoform P28329-3): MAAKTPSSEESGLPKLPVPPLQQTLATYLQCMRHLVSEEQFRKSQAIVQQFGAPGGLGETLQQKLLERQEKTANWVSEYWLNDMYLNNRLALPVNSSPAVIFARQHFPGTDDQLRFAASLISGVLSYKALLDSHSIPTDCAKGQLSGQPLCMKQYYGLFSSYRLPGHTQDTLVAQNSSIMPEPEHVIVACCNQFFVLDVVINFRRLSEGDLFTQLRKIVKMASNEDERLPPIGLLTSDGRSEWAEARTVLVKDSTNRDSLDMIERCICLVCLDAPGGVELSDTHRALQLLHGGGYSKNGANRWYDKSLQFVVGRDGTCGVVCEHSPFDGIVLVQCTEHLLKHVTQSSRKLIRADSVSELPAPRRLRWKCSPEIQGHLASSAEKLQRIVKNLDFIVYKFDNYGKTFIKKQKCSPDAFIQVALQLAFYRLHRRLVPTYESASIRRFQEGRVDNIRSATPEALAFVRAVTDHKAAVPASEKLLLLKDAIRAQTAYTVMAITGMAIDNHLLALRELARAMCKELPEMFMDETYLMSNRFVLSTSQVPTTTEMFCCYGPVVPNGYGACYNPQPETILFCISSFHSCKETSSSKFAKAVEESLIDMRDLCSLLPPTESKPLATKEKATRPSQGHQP
The experiment can be described thus: In vitro ChAT activity inhibition fluorometric assay and kinetic studies. In kind it is biochemical. The following applies: mean ± SEM of two experiments.

Experiment [2] has as its target T2, human rChAT. Described as above. In kind it is biochemical. The method, then:
ChAT activity was measured using our newly developed fluorometric assay, using human recombinant ChAT (rChAT) protein. The reagents, choline chloride, acetyl coenzyme-A (ACoA, A2181) and 7-Diethylamino-3-(4-maleimidophenyl)-4-methylcoumarin (CPM) were purchased from Sigma-Aldrich (St. Louis, MO, USA).
The ChAT assay could be run in either 96-well or 384-well plates. For 96-well plates, 50 μL/well of 0.212 µg/ml (final concentration) of the recombinant ChAT was incubated with 100 μM different Asinex compounds (50 μL/well) for 10–30 minutes at room temperature in dilution buffer (10 mM Tris-HCl, pH 7.4, 150 mM NaCl, 1.0 mM EDTA, 0.05% (v/v) Triton X-100). Then, 50 µL of a cocktail-A [dilution buffer containing choline chloride (final concentration 150 µM), ACoA (final concentration 13.3 µM) and CPM (final concentration 15 µM)] was added to each well. Immediately after adding the cocktail-A, the changes in fluorescence was monitored kinetically at 479 nm after exciting at 390 nm at 1–2 minute intervals for 15–20 minutes using a microplate spectrophotometer reader (Infinite M1000, Tecan).
Each Asinex compounds were run in triplicates. On each 96-wells plate, several enzyme wells without inhibitor were also included during measurements as control and for estimating the inhibition level. Negative controls were wells without enzyme. The percentage inhibition for each Asinex compound was calculated based on the enzyme control value as a reference (100% activity). The compounds showing over 50% inhibition of enzyme activity were selected for further kinetic studies.
as §2
The Michaelis-Menten constant (Km) and maximal velocity (Vmax) values were calculated from substrate-velocity curve after fitting the data with non-linear regression Michaelis-Menten kinetic function. The Km and Vmax values were further used to plot the Lineweaver-Burk plots; the plots were fitted using linear regression function.

A further experiment has as its target T3, recombinant human AChE (Homo sapiens, UniProt P22303).
T3 construct: purchased Sigma C1682
The experiment can be described thus: Modified Ellman's colorimetric assay for AChE and kinetic studies. It is filed as biochemical. The following applies: 200 µM compound, compared to control, mean of three experiments in triplicate.
From the text: as §1, §2

A further experiment deals with ChAT. More on the design: method as in PMID 27507101. The settings on record: as previously reported by our group ref 26; cited from earlier work.

T3 sequence (P22303 32-614): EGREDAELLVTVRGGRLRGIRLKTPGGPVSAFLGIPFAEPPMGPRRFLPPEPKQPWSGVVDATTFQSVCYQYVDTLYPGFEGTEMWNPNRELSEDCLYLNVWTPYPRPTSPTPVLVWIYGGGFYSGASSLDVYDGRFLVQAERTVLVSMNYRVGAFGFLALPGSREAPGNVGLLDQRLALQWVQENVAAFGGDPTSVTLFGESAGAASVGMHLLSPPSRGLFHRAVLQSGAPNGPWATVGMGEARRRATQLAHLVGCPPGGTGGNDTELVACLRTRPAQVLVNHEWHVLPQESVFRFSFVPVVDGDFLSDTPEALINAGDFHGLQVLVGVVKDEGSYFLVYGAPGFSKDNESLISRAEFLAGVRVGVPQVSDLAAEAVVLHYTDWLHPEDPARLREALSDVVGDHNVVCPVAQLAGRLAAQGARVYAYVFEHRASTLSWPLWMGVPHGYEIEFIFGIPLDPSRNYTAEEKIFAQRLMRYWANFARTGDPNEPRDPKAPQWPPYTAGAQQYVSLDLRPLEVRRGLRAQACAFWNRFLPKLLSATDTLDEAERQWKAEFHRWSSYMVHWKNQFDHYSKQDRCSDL

Consider `CCc1ccc2[nH]c3nc(SCCC(=O)N4CCCCCC4)nnc3c2c1` [Compound B1], for which, at plasma BuChE (200 µM), the “BuChE % IR (inhibition rate)” value is 14.8%. Also, the inhibition at 200 µM at plasma BuChE (read-out: BuChE % IR (inhibition rate)) is 15%; on recombinant human AChE (read-out: AChE % IR (inhibition rate)) it was 9%. In addition, the “Vmax of rChAT” value on human rChAT [1] (inhibitor 2.0 µM) stood at 189.6 ± 17.3 µM/min; on human rChAT [1] (inhibitor 10.0 µM), 154.3 ± 13.4 µM/min; at human rChAT [1] (inhibitor 50.0 µM) it was 73.5 ± 9.7 µM/min; at human rChAT [1] (inhibitor 250.0 µM) it was 54.9 ± 6.8 µM/min; at human rChAT [2] (inhibitor 0.4 µM, mean ± SEM of two experiments) it was 247.3 ± 17.8 µM/min. In addition, the “mode of inhibition of human rChAT” value on human rChAT [2] (Lineweaver-Burk plot and nonlinear regression fit) is reported as “mixed-model inhibition”. The Ki at human rChAT [2] (mean of two experiments) is ~9.4 µM and 9.4 µM. In addition, the IC50 against human rChAT [2] (substrate concentrations 20 to 80 µM, mean of two experiments) is ~7 µM and 7 µM. Moreover, at recombinant human AChE (200 µM), the “AChE % IR (inhibition rate)” value came out at 9.1%.
In the case of `C[N+](C)(C)CCC(=O)c1cccc2ccccc12.[I-]` [α-NETA, 2-(alpha-naphthoyl)ethyltrimethylammonium iodide, reference compound], the half-inhibitory concentration (IC50) in the experiment on ChAT was 0.1 µM. Also, the “ChAT % IR (inhibition rate)” value on human rChAT [2] (100 µM compound, compared to control, mean of three experiments in triplicate, 100 µM) was 93.7%. For the same molecule, the inhibition at 100 µM at human rChAT [2] (100 µM compound, compared to control, mean of three experiments in triplicate, read-out: ChAT % IR (inhibition rate)) stood at 93%.

Broadly, the inhibition is the drop in the measured response relative to a control, in per cent. In general, Ki refers to a measure of affinity in units of concentration, obtained from inhibition or displacement. A lower Ki goes with tighter binding. As usually defined, the IC50 is the midpoint of a concentration-inhibition curve.
